Laboratory results from BindingDB's records for doi:10.7270/Q2H70D5W (University of Pittsburgh, 2007).
pIC50: −log10 of the molar value.

Biological target: Gag-Pol polyprotein (Human immunodeficiency virus type 1 group M subtype B (isolate HXB2), UniProt P04585)
Assay: concentration-response of HIV-1 RNase H blockers – biochemical, probe assessment, dose response (AID 652)
Conditions: pH 8; 23 °C

Row | SMILES | pIC50
1 | O=C(COc1ccc(Br)cc1)Nc1ccc(-c2nnc(-c3ccco3)o2)cc1 [2-(4-bromanylphenoxy)-N-[4-[5-(furan-2-yl)-1,3,4-oxadiazol-2-yl]phenyl]ethanamide] | 5.20
2 | Cc1ccc(NC(=O)Cn2nnc(C(=O)Nc3ccc(C)c(C)c3)c2N)cc1 [5-amino-N-(3,4-dimethylphenyl)-1-[2-(4-methylanilino)-2-oxoethyl]-4-triazolecarboxamide] | 4.78
3 | CC(C)Cc1cc(C(=O)Nc2sc3c(c2C#N)CCCC3)no1 [MLS000116410] | 5.32
4 | CCN1CCN(c2nc(C)nc3c2sc(=S)n3C)CC1 [7-(4-ethyl-1-piperazinyl)-3,5-dimethyl-2-thiazolo[4,5-d]pyrimidinethione] | 5.53
5 | COC(=O)c1oc2ccc(Br)cc2c1NC(=O)c1ccccc1 [3-benzamido-5-bromo-2-benzofurancarboxylic acid methyl ester] | 6.00
6 | CCOC(=O)c1sc(=S)n2c1[nH]c(=O)c1ccc(C(=O)OC)cc12 [MLS000094734] | 6.19
7 | CN(c1ccccc1)c1ccc(C=c2s/c(=C(/C#N)C(=O)C(C)(C)C)n(Cc3ccco3)c2=O)cc1 [2-[3-(furan-2-ylmethyl)-5-[[4-(N-methylanilino)phenyl]methylidene]-4-oxo-1,3-thiazolidin-2-ylidene]-4,4-dimethyl-3-oxopentanenitrile] | 5.70
8 | CCOC(=O)c1c(NC(=O)c2cc(C3CC3)on2)sc2c1CCCC2 [2-[(5-cyclopropylisoxazole-3-carbonyl)amino]-4,5,6,7-tetrahydrobenzothiophene-3-carboxylic acid ethyl ester] | 5.77
9 | OCCN1CCN(C(=S)c2ccc(Cl)c(Cl)c2)CC1 [(3,4-dichlorophenyl)-[4-(2-hydroxyethyl)-1-piperazinyl]methanethione] | 5.50
10 | O=C(Nc1ccc(N2CCOCC2)cc1)c1ccc2nc(-c3ccco3)c(-c3ccco3)nc2c1 [2,3-bis(2-furanyl)-N-[4-(4-morpholinyl)phenyl]-6-quinoxalinecarboxamide] | 4.65
11 | Cc1cc(-c2nn3c(-c4ccccc4)nnc3s2)c2ccccc2n1 [2-methyl-4-(3-phenyl[1,2,4]triazolo[3,4-b][1,3,4]thiadiazol-6-yl)quinoline] | 5.59
12 | Cc1ccccc1OCc1nc(-c2ccc(NC(=O)c3ccc4c(c3)OCO4)cc2)no1 [MLS000047257] | 5.34
13 | CCC1CC2(C)NC(=O)c3c(sc4c3CC(C)(C)OC4)N2C1=O (stereo unspecified) [MLS000077638] | 5.54
14 | COc1ccc(N2CSC3=C(C#N)C(c4cc(OC)ccc4OC)CC(=O)N3C2)c(OC)c1 (stereo unspecified) [3-(2,4-dimethoxyphenyl)-8-(2,5-dimethoxyphenyl)-6-keto-2,4,7,8-tetrahydropyrido[2,1-b][1,3,5]thiadiazine-9-carbonitrile] | 5.54
15 | COC(=O)c1ccc2c(c1)N(Cc1nc(-c3cccc(C)c3)oc1C)C(=O)C1CCCN21 (stereo unspecified) [4-keto-5-[[5-methyl-2-(m-tolyl)oxazol-4-yl]methyl]-1,2,3,3a-tetrahydropyrrolo[1,2-a]quinoxaline-7-carboxylic acid methyl ester] | 5.22
16 | N#Cc1nc(-c2ccc(OCc3ccc(Cl)cc3)cc2)oc1NCc1cccnc1 [2-[4-(4-chlorobenzyl)oxyphenyl]-5-(3-pyridylmethylamino)oxazole-4-carbonitrile] | 4.89
17 | O=c1cc(CN2CCN(c3ccccc3)CC2)c2cc(O)c(-c3ccccc3)cc2o1 [6-hydroxy-7-phenyl-4-[(4-phenyl-1-piperazinyl)methyl]-1-benzopyran-2-one] | 5.30
18 | CC(C)CN(C(=O)COC(=O)c1ccc2c(c1)NC(=O)CS2)C1CCS(=O)(=O)C1 (stereo unspecified) [3-keto-4H-1,4-benzothiazine-6-carboxylic acid [2-[(1,1-diketothiolan-3-yl)-isobutyl-amino]-2-keto-ethyl] ester] | 4.52
19 | CCn1cc(C(=O)NCc2ccco2)c(=O)c2cc(S(=O)(=O)N3CCc4ccccc4C3)ccc21 [6-(3,4-dihydro-1H-isoquinolin-2-ylsulfonyl)-1-ethyl-N-(2-furanylmethyl)-4-oxo-3-quinolinecarboxamide] | 5.03
20 | COc1ccc(OC)c(CCNC(=O)Cn2sc3nc(C)cc(C)c3c2=O)c1 [MLS000118887] | 5.51
21 | CC(=O)c1cccc(NC(=O)c2cc(-c3ccc(C)cc3)on2)c1 [MLS000050755] | 4.88
22 | CCOC(=O)c1sc(NC(=O)CSc2nnc(-c3ccccc3)[nH]2)c(C#N)c1C [ethyl 4-cyano-3-methyl-5-[[2-[(5-phenyl-1H-1,2,4-triazol-3-yl)sulfanyl]acetyl]amino]thiophene-2-carboxylate] | 6.17
23 | O=C1c2sc3nc4ccccc4n3c2C(=O)N1c1ccccc1Cl [MLS000038506] | 5.95
24 | COc1ccc(-c2nsc(SCC(=O)Nc3cc(C)on3)n2)cc1 [2-[[3-(4-methoxyphenyl)-1,2,4-thiadiazol-5-yl]sulfanyl]-N-(5-methyl-1,2-oxazol-3-yl)acetamide] | 5.52
25 | CCCN(CCC)S(=O)(=O)c1ccc(C(=O)Nc2nnc(-c3cccc(OC)c3)o2)cc1 [4-(dipropylsulfamoyl)-N-[5-(3-methoxyphenyl)-1,3,4-oxadiazol-2-yl]benzamide] | 4.67
26 | CCC(C)Sc1nc2c(c(=O)[nH]c(=O)n2C)n1CC(O)COc1cccc2ccccc12 (stereo unspecified) [SMR000009990] | 5.40

Row | SMILES | pIC50
27 | CC(Cc1ccc(O)c(O)c1)C(C)Cc1ccc(O)c(O)c1 (stereo unspecified) [LOX inhibitor, N/A] | 6.18
28 | Cc1cccc(OCC(=O)Nc2cccc(-c3nnc(-c4ccccc4)o3)c2)c1C [2-(2,3-dimethylphenoxy)-N-[3-(5-phenyl-1,3,4-oxadiazol-2-yl)phenyl]acetamide] | 5.41
29 | CC(C)c1nnc(NC(=O)c2c(O)n3c4c(cccc4c2=O)CCC3)s1 [1-Hydroxy-3-oxo-6,7-dihydro-3H,5H-pyrido[3,2,1-ij]quinoline-2-carboxylic acid (5-isopropyl-[1,3,4]thiadiazol-2-yl)-amide] | 4.83
30 | Cc1cccc(-c2nsc(SCC(=O)Nc3nccs3)n2)c1 [2-[[3-(3-methylphenyl)-1,2,4-thiadiazol-5-yl]sulfanyl]-N-(1,3-thiazol-2-yl)acetamide] | 5.42
31 | O=C(CSc1nc2ccccc2c2nc3ccccc3n12)NCc1ccco1 [2-(6-benzimidazolo[1,2-c]quinazolinylthio)-N-(2-furanylmethyl)acetamide] | 5.06
32 | COc1ccc(OC)c(Nc2nc(-c3ccc(O)c(O)c3)cs2)c1 [4-[2-(2,5-Dimethoxy-phenylamino)-thiazol-4-yl]-benzene-1,2-diol] | 5.83
33 | Cc1cccc(C)c1NC(=O)CSCC(=O)c1ccc(O)c(O)c1 [2-[2-(3,4-dihydroxyphenyl)-2-oxoethyl]sulfanyl-N-(2,6-dimethylphenyl)acetamide] | 5.42
34 | Nc1nnc(CSCc2ccc(F)cc2)s1 [5-[(4-fluorophenyl)methylsulfanylmethyl]-1,3,4-thiadiazol-2-amine] | < 4.30
35 | CC(C)CNC(=O)c1c(N)n(N=Cc2ccccn2)c2nc3ccccc3nc12 [2-amino-N-(2-methylpropyl)-1-(2-pyridinylmethylideneamino)-3-pyrrolo[3,2-b]quinoxalinecarboxamide] | 5.03
36 | CCC1(C)Cc2c(sc3c2c(=O)n(C)c2nnc(SCc4ccc5c(c4)OCO5)n32)CO1 (stereo unspecified) [MLS000030507] | 4.64
37 | CC(C)c1nc2sc3c(SCC(=O)NCc4ccco4)ncnc3c2c2c1CCC2 [MLS000082582] | 5.64
38 | CC(C)Sc1nc2sc3c(c2c2nnc(SCC(=O)NCc4ccco4)n12)CCCC3 [MLS000082957] | 5.52
39 | c1ccc(Cc2nn3c(Cn4nnc5ccccc54)nnc3s2)cc1 [3-(1-benzotriazolylmethyl)-6-(phenylmethyl)-[1,2,4]triazolo[3,4-b][1,3,4]thiadiazole] | 5.74
40 | COc1ccc(C2c3c(oc4ccc(Cl)cc4c3=O)C(=O)N2Cc2ccco2)cc1OC (stereo unspecified) [7-chloranyl-1-(3,4-dimethoxyphenyl)-2-(furan-2-ylmethyl)-1H-chromeno[2,3-c]pyrrole-3,9-dione] | 4.87
41 | Cc1oc(-c2ccc(Cl)cc2)cc1-c1nn2c(-c3ccoc3C)nnc2s1 [6-[5-(4-chlorophenyl)-2-methyl-3-furanyl]-3-(2-methyl-3-furanyl)-[1,2,4]triazolo[3,4-b][1,3,4]thiadiazole] | 5.93
42 | Cc1cc(C)c2c(=O)n(CC(=O)N3CCC(N4CCCCC4)CC3)sc2n1 [2-[2-keto-2-(4-piperidinopiperidino)ethyl]-4,6-dimethyl-isothiazolo[5,4-b]pyridin-3-one] | 4.42
43 | COc1ccc(Cn2nnnc2C(c2cccnc2)N2CCN(c3ccc(O)cc3)CC2)cc1 (stereo unspecified) [4-(4-{[1-(4-Methoxy-benzyl)-1H-tetrazol-5-yl]-pyridin-3-yl-methyl}-piperazin-1-yl)-phenol] | < 4.30
44 | Cc1ccc(Cn2c(SCC(C)C)nc3c2c(=O)[nH]c(=O)n3C)cc1 [3-methyl-7-[(4-methylphenyl)methyl]-8-(2-methylpropylthio)purine-2,6-dione] | 5.77
45 | CCc1ccccc1N1CSC2=C(C#N)C(c3cc(OC)c(OC)cc3OC)CC(=O)N2C1 (stereo unspecified) [3-(2-ethylphenyl)-6-oxidanylidene-8-(2,4,5-trimethoxyphenyl)-2,4,7,8-tetrahydropyrido[2,1-b][1,3,5]thiadiazine-9-carbonitrile] | 5.54
46 | Cc1cccc(C(=O)OCC(=O)Nc2ccc(N3CCCCC3)cc2)c1O [2-hydroxy-3-methyl-benzoic acid [2-keto-2-(4-piperidinoanilino)ethyl] ester] | 4.88
47 | c1c2c(cc3sc(N4CCOCC4)nc13)OCO2 [6-(4-morpholinyl)-[1,3]dioxolo[4,5-f][1,3]benzothiazole] | 5.44
48 | CC(=O)C(C(C)=O)c1c(Cl)c(O)c(O)c2c(C(=O)c3ccccc3)coc12 [3-(3-benzoyl-6-chloro-4,5-dihydroxy-1-benzofuran-7-yl)pentane-2,4-dione] | 6.42
49 | COc1cccc(-c2nnc(NC(=O)c3ccc(S(=O)(=O)N(CC(C)C)CC(C)C)cc3)o2)c1 [4-(diisobutylsulfamoyl)-N-[5-(3-methoxyphenyl)-1,3,4-oxadiazol-2-yl]benzamide] | 5.32
50 | O=C(CSc1nnc[nH]1)c1ccccc1 | 5.26
51 | Nc1ccc(-c2nnc(-c3ccc(-c4ccccc4)cc3)o2)cc1 [4-[5-(4-phenylphenyl)-1,3,4-oxadiazol-2-yl]aniline] | 5.57
